Measured values taken from PMC9227119, “Hydroxybenzoic Acids as Acetylcholinesterase Inhibitors: Calorimetric and Docking Simulation Studies” (Nutrients, 2022).
Converted amounts (≈) assume the structure as drawn. “And” between values parts separate entries of the source, which are not always exact repeats. Identical values can stand only once. Like-named read-outs stand apart in the source and are kept apart here.

Experiments:
[1] = target: T1, Acetylcholinesterase from Electrophorus electricus (electric eel) (AChE) (Electrophorus electricus, UniProt O42275); format: biochemical; details: 36.6 °C; for % Inhibition (inhibitory activity, ITC): AChE 1 μmol/L in cell, syringe hydroxybenzoic acid 0.5 mmol/L and ACh 1 mmol/L, mean ± SD of three; for IC50 (ITC): ligand amount per AChE monomer that inhibits ACh hydrolysis by 50%
T1 sequence (O42275 24-633): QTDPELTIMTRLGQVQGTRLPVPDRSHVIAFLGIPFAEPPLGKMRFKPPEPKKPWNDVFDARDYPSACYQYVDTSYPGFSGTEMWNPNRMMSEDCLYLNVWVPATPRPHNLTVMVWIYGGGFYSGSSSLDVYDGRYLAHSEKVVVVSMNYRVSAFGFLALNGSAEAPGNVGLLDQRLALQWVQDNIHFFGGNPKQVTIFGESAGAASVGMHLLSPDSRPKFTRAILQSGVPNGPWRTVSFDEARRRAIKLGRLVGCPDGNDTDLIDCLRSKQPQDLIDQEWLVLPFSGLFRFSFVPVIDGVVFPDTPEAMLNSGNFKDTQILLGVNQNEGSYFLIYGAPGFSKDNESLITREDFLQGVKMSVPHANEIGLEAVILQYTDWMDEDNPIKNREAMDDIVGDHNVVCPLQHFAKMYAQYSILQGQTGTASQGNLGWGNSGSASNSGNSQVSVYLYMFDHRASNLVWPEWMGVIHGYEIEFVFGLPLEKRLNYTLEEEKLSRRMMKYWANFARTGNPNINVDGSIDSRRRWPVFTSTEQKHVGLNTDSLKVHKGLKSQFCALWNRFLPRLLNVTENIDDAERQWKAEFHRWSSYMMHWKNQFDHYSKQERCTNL

[2] = target: T1, Acetylcholinesterase from Electrophorus electricus (electric eel) (AChE); assay: ITC: titration of AChE with ligand, complexation (association) constant; format: binding; details: for Ka × 10^3 (binding/association constant, ITC): 36.6 °C, one binding site model; for Ka (association constant, ITC): restated in L/mol
AChE [3] = details: colorimetric method; cited from earlier work
AChE [4] = details: inhibitory activity for AChE; cited from earlier work
AChE [5] = details: mice administered with streptozotocin; dose-dependent; cited from earlier work
AChE [6] = test system: AChE; parameters: method as in PMID 23229229; details: AChE inhibition; cited from earlier work
AChE [7] = details: AChE inhibition; literature result, no reference given; cited from earlier work
AChE [8] = details: anti-AChE activity; cited from earlier work
AChE [9] = test system: AChE; parameters: method as in PMID 18274286; details: AChE inhibition; cited from earlier work

| SMILES | % Inhibition (inhibitory activity, ITC) [1] [%] | IC50 (ITC) [1] | Kd [2] [µM] | Ka × 10^3 (binding/association constant, ITC) [2] | Ellman’s Assay (inhibitory activity as eserine equivalent) (AChE [3]) | other results |
| --- | --- | --- | --- | --- | --- | --- |
| CCOC(=O)c1ccc(O)c(OC)c1 [ethyl vanillate] | 14.60 ± 2.33 | 34.19 μmol/μmol AChE and 34.19 ± 5.46 μmol/μmol AChE | 25.8 | 38.76 × 10^3 L/mol | 33.5 ± 2.5 nmol/L of Eserine |  |
| O=C(O)c1ccc(O)c(O)c1 [protocatechuic acid] | 77.15 ± 5.16 | 6.50 ± 0.43 μmol/μmol AChE | 17.4 | 57.63 × 10^3 L/mol |  | IC50 (ITC) ([1]; listed as Protocatechic acid): 6.50 μmol/μmol AChE |
| O=C(O)C(=O)Cc1ccc(O)cc1 [4-hydroxyphenylpyruvic acid] | 84.93 ± 5.82 | 5.89 μmol/μmol AChE and 5.89 ± 0.40 μmol/μmol AChE | 3.95 | 253 × 10^3 L/mol | 23.6 ± 1.5 nmol/L of Eserine | Ka (association constant, ITC) [2]: 253000 L/mol |
| O=C(O)c1cc(O)ccc1O [gentisic acid] | 62.38 ± 6.39 | 8.02 μmol/μmol AChE and 8.02 ± 0.82 μmol/μmol AChE | 13 | 76.92 × 10^3 L/mol | 68.6 ± 0.7 nmol/L of Eserine |  |
| O=C(O)Cc1cc(O)ccc1O [homogentisic acid] | 68.78 ± 0.88 | 7.16 μmol/μmol AChE and 7.16 ± 0.09 μmol/μmol AChE | 8.55 | 116.92 × 10^3 L/mol | 9.6 ± 2.4 nmol/L of Eserine |  |
| O=C(O)Cc1ccc(O)cc1 [4-hydroxyphenylacetic acid] | 80.20 ± 8.04 | 6.24 μmol/μmol AChE and 6.24 ± 0.63 μmol/μmol AChE | 15.1 | 66.23 × 10^3 L/mol |  |  |
| O=C(O)c1ccc(O)cc1 [4-hydroxybenzoic acid] |  |  |  |  | 3.7 ± 0.3 nmol/L of Eserine |  |
| COc1cc(C(=O)O)ccc1O [vanillic acid] | 73.70 ± 1.90 | 6.79 μmol/μmol AChE and 6.79 ± 0.18 μmol/μmol AChE | 19.1 | 52.36 × 10^3 L/mol | 3.2 ± 0.0 nmol/L of Eserine | AChE activity in mice (AChE [5]): reduced |
| C[C@H](Cc1ccc(O)c(O)c1)[C@@H](C)Cc1ccc(O)c(O)c1 [nordihydroguaiaretic acid] | 77.20 ± 4.84 | 6.47 μmol/μmol AChE and 6.47 ± 0.41 μmol/μmol AChE | 17.3 | 57.80 × 10^3 L/mol | 37.3 ± 1.2 nmol/L of Eserine | IC50 (AChE [6]): 46.2 µM |
| CCOC(=O)c1ccc(O)cc1 [ethyl 4-hydroxybenzoate] | 15.93 ± 0.75 | 31.38 ± 1.48 μmol/μmol AChE | 48.7 | 20.53 × 10^3 L/mol | 28.1 ± 0.1 nmol/L of Eserine | IC50 (ITC) ([1]; listed as ethylhydroxybenzoate): 31.38 μmol/μmol AChE |
| COC(=O)c1cc(OC)c(O)c(OC)c1 [methyl syringate] | 90.93 ± 7.13 | 5.50 μmol/μmol AChE and 5.50 ± 0.43 μmol/μmol AChE | 6.48 | 154.32 × 10^3 L/mol | 9.1 ±1.6 nmol/L of Eserine | Ka (association constant, ITC) [2]: 154000 L/mol |
| COc1cc(CC(=O)O)ccc1O [homovanillic acid] | 77.50 ± 2.59 | 6.45 μmol/μmol AChE and 6.45 ± 0.22 μmol/μmol AChE | 7.35 | 136.05 × 10^3 L/mol | 21.8 ± 0.4 nmol/L of Eserine |  |
| COc1cc(C=O)ccc1O [vanillin] |  |  |  |  |  | IC50 (AChE [7]): 37 µM |
| COc1cc(C(=O)O)cc(OC)c1O [syringic acid] | 71.80 ± 3.12 | 6.96 ± 0.30 μmol/μmol AChE | 5.46 | 183.15 × 10^3 L/mol | 5.4 ± 0.1 nmol/L of Eserine | IC50 (ITC) ([1]; listed as Syringic acid): 6.96 μmol/μmol AChE; Ka (association constant, ITC) [2]: 180000 L/mol; IC50 (AChE [8]): 18.73 µg/mL (≈ 94.5 µM) |
| O=C(O)c1cccc(O)c1 [3-hydroxybenzoic acid] | 74.80 ± 8.63 | 6.68 μmol/μmol AChE and 6.68 ± 0.77 μmol/μmol AChE | 15.6 | 64.10 × 10^3 L/mol | 2.6 ± 0.1 nmol/L of Eserine |  |
| O=C(O)c1cc(O)c(O)c(O)c1 [gallic acid] | 53.70 ± 2.86 | 9.32 μmol/μmol AChE and 9.32 ± 0.50 μmol/μmol AChE | 19.4 | 51.55 × 10^3 L/mol | 3.8 ± 0.1 nmol/L of Eserine | IC50 (AChE [9]): 5.89 µM |
| O=C(O)c1ccccc1O [salicylic acid] | 82.30 ± 4.77 | 6.07 ± 0.35 μmol/μmol AChE | 19.4 | 51.55 × 10^3 L/mol | 11.8 ± 0.4 nmol/L of Eserine | IC50 (ITC) ([1]; listed as Salicylic acid): 6.07 μmol/μmol AChE |
